{
  "source": "paper PMC3090393",
  "about": "“New Noncovalent Inhibitors of Penicillin-Binding Proteins from Penicillin-Resistant Bacteria” (PLoS ONE, 2011)",
  "key": {"[1]": {"molecular_target": "T1, PBP2a (Staphylococcus aureus, UniProt P07944)", "T1 construct": "made in house", "T1 sequence (P07944 whole entry)": "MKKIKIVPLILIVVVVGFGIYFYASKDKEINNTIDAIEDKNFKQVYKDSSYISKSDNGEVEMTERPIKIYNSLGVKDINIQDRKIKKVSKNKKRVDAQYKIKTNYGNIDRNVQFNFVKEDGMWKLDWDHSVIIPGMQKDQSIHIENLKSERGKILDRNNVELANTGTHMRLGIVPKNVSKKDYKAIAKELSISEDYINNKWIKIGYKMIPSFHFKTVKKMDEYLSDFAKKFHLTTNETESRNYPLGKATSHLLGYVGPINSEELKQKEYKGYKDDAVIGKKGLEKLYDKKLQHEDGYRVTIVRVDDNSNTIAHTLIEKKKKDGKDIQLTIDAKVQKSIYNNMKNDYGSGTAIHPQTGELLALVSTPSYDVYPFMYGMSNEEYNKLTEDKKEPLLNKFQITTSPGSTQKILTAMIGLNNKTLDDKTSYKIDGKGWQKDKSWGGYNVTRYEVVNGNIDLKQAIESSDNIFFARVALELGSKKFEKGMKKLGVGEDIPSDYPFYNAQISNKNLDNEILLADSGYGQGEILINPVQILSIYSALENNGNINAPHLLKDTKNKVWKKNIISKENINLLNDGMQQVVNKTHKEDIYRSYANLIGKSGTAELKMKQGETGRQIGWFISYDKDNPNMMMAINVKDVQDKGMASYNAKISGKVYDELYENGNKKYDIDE", "test": "PBP2a enzymatic inhibition assay (fluorescein-labeled ampicillin, residual penicillin binding activity)", "assay_type": "biochemical, Staphylococcus aureus ATCC 43300", "description": "PBP2a from Staphylococcus aureus ATCC 43300 and PBP5fm from Enterococcus faecium D63r were overproduced and purified as described previously, [18].\nEach of the purified PBPs (2.5 µM) were first incubated with 1 mM potential inhibitor in 100 mM phosphate buffer, 0.01% Triton X-100[19], pH 7, for 4 h at 30°C. Then, 25 µM fluorescein-labeled ampicillin[20] was added to detect the residual penicillin binding activity (RA). The samples were further incubated for 30 min at 37°C in a total volume of 20 µL. Denaturation buffer was added (0.1 M Tris/HCl, pH 6.8, containing 25% glycerol, 2% SDS, 20% β-mercaptoethanol and 0.02% bromophenol blue) and the samples were heated to 100°C for 1 min. The samples were then loaded onto a 10% SDS-acrilamide gel (10×7 cm) and electrophoresis was performed for 45 min at 180 V (12 mA). Detection and quantification of the RAs were with Molecular Image FX equipment and Quantity One software (BioRad, Hercules, CA, USA). Three independent experiments were carried out for each inhibitor."}, "[2]": {"test_system": "S. aureus ATCC43300 resistant strain", "test": "Killing curves experiments", "assay_type": "cell-based, Staphylococcus aureus", "conditions": "concentration equivalent to 4 times the MIC; data not shown"}, "[3]": {"test_system": "Pseudomonas aeruginosa ATCC 27853", "test": "In-vitro antibacterial activity (MIC, broth microdilution)", "assay_type": "cell-based", "conditions": "ATCC27853", "description": "(§1) Determination of the antibacterial activities was carried out on microtiter plates, in 200 µL (final volume) of Müeller-Hinton Broth (MHB), following EUCAST (European Committee on Antimicrobial Susceptibility testing)/CLSI (Clinical and Laboratory Standard Institute) recommended procedures, [25]. The compounds were solubilized in MHB, just before use. Inocula were prepared for each strain by resuspending isolated colonies from 18 h cultured plates. Equivalents of 0.5 Mac Farland turbidity standards (approximately 1×10^8 CFU mL^−1) were prepared in saline solution ([…]) and then diluted 200-fold in MBH."}, "[4]": {"test_system": "Micrococcus luteus ATCC 9341", "test": "In-vitro antibacterial activity (MIC, broth microdilution)", "assay_type": "cell-based", "conditions": "ATCC9341", "description": "as §1"}, "[5]": {"test_system": "Proteus mirabilis ATCC 29936", "test": "In-vitro antibacterial activity (MIC, broth microdilution)", "assay_type": "cell-based", "conditions": "ATCC29936", "description": "as §1"}, "[6]": {"test_system": "Streptococcus pneumoniae ATCC 49619", "test": "In-vitro antibacterial activity (MIC, broth microdilution)", "assay_type": "cell-based", "conditions": "ATCC49619", "description": "as §1"}, "[7]": {"test_system": "Listeria innocua ATCC 33090", "test": "In-vitro antibacterial activity (MIC, broth microdilution)", "assay_type": "cell-based", "conditions": "ATCC33090", "description": "as §1"}, "[8]": {"test_system": "Bacillus subtilis ATCC 6633", "test": "In-vitro antibacterial activity (MIC, broth microdilution)", "assay_type": "cell-based", "conditions": "ATCC6633", "description": "as §1"}, "[9]": {"test_system": "Staphylococcus aureus ATCC 25923", "test": "In-vitro antibacterial activity (MIC, broth microdilution)", "assay_type": "cell-based", "conditions": "ATCC25923", "description": "as §1"}, "[10]": {"test_system": "Citrobacter freundii ATCC 8090", "test": "In-vitro antibacterial activity (MIC, broth microdilution)", "assay_type": "cell-based", "conditions": "ATCC8090", "description": "as §1"}, "[11]": {"test_system": "Klebsiella pneumoniae ATCC 13883", "test": "In-vitro antibacterial activity (MIC, broth microdilution)", "assay_type": "cell-based", "conditions": "ATCC13883", "description": "as §1"}, "[12]": {"test_system": "Enterococcus faecalis ATCC 7937", "test": "In-vitro antibacterial activity (MIC, broth microdilution)", "assay_type": "cell-based", "conditions": "ATCC7937", "description": "as §1"}, "[13]": {"test_system": "Staphylococcus aureus mp 1 (inducible MRSA)", "test": "In-vitro antibacterial activity (MIC, broth microdilution)", "assay_type": "cell-based", "description": "as §1"}, "[14]": {"test_system": "Listeria monocytogenes ATCC 14780", "test": "In-vitro antibacterial activity (MIC, broth microdilution)", "assay_type": "cell-based", "conditions": "ATCC14780", "description": "as §1"}, "[15]": {"test_system": "Escherichia coli ATCC 8739", "test": "In-vitro antibacterial activity (MIC, broth microdilution)", "assay_type": "cell-based", "conditions": "ATCC8739", "description": "as §1"}, "[16]": {"test_system": "Staphylococcus epidermidis ATCC 12228", "test": "In-vitro antibacterial activity (MIC, broth microdilution)", "assay_type": "cell-based", "conditions": "ATCC12228", "description": "as §1"}, "[17]": {"test_system": "Streptococcus pneumoniae ATCC 33400", "test": "In-vitro antibacterial activity (MIC, broth microdilution)", "assay_type": "cell-based", "conditions": "ATCC33400", "description": "as §1"}, "[18]": {"test_system": "Streptococcus pneumoniae D39", "test": "In-vitro antibacterial activity (MIC, broth microdilution)", "assay_type": "cell-based", "description": "as §1"}, "[19]": {"test_system": "Enterococcus faecalis ATCC 29212", "test": "In-vitro antibacterial activity (MIC, broth microdilution)", "assay_type": "cell-based", "conditions": "ATCC29212", "description": "as §1"}, "[20]": {"test_system": "Staphylococcus aureus ATCC 43300 (MRSA)", "test": "In-vitro antibacterial activity (MIC, broth microdilution)", "assay_type": "cell-based", "description": "as §1"}, "[21]": {"test_system": "Enterococcus hirae ATCC 8790", "test": "In-vitro antibacterial activity (MIC, broth microdilution)", "assay_type": "cell-based", "conditions": "ATCC8790", "description": "as §1"}, "[22]": {"test_system": "Enterococcus faecium ATCC 19434", "test": "In-vitro antibacterial activity (MIC, broth microdilution)", "assay_type": "cell-based", "conditions": "ATCC19434", "description": "as §1"}, "[23]": {"test_system": "all of the Staphylococcus aureus tested strains", "test": "In-vitro antibacterial activity (MIC), Staphylococcus aureus strains", "assay_type": "cell-based", "description": "as §1"}, "[24]": {"test_system": "protoplasts of S. aureus ATCC43300 resistant strain", "test": "Effect on protoplasts", "assay_type": "cell-based, Staphylococcus aureus", "conditions": "concentration equivalent to 4 times the MIC; after ten minutes", "description": "The importance of this hit compound is further underlined by its very promising minimum inhibitory concentrations (MICs) against several Gram-positive bacterial strains, including MRSA (32 µg/mL). […] This assumption is confirmed by the fact that for S. aureus ATCC25923 strain, sensitive to penicillin and devoid of PBP2a, compound 1 has the same MIC value as for the other two resistant S. aureus strains (Table 2) where PBP2a is present. To better understand the antibacterial activity of compound 1, we performed an experiment to evaluate the effect of compound 1 on the protoplasts of S. aureus ATCC43300 resistant strain, at a concentration equivalent to 4 times the MIC. […] Further analysis is needed to better understand the precise mode of action of these inhibitors on the bacterial cell."}},
  "note": "Like-named read-outs stand apart in the source and are kept apart here.",
  "data": [
    {"smiles": "CCCCOc1ccc2cc(S(=O)(=O)Nc3ccccc3C(=O)O)ccc2c1", "note": "[compound 1, 2-(6-butoxynaphthalene-2-sulfonamido)benzoic acid]", "values": [
      {"measurement": "remaining activity at 1000 µM", "setting": "[1]; 4 h, residual activity of the enzyme at 1 mM inhibitor, 0.01% Triton X-100, mean of three experiments, read-out: PBP2a RA [%]", "result": 0, "unit": "%"},
      {"measurement": "IC50", "setting": "[1]; in the presence of 0.01% Triton X-100", "result": 97, "unit": "µM"},
      {"measurement": "melting point", "result": "192 to 194", "unit": "°C"},
      {"measurement": "killing curves, bacterial count", "setting": "[2]", "result": "no viable cells were observed after 120 min"},
      {"measurement": "MIC", "setting": "[3]", "result": "> 1020", "unit": "µg/mL"},
      {"measurement": "MIC", "setting": "[4]", "result": 2, "unit": "µg/mL"},
      {"measurement": "MIC", "setting": "[5]", "result": "> 1020", "unit": "µg/mL"},
      {"measurement": "MIC", "setting": "[6]", "result": 1, "unit": "µg/mL"},
      {"measurement": "MIC", "setting": "[7]", "result": 16, "unit": "µg/mL"},
      {"measurement": "MIC", "setting": "[8]", "result": 2, "unit": "µg/mL"},
      {"measurement": "MIC", "setting": "[9]", "result": 32, "unit": "µg/mL"},
      {"measurement": "MIC", "setting": "[10]", "result": "> 1020", "unit": "µg/mL"},
      {"measurement": "MIC", "setting": "[11]", "result": "> 1020", "unit": "µg/mL"},
      {"measurement": "MIC", "setting": "[12]", "result": 16, "unit": "µg/mL"},
      {"measurement": "MIC", "setting": "[13]", "result": 32, "unit": "µg/mL"},
      {"measurement": "MIC", "setting": "[14]", "result": 16, "unit": "µg/mL"},
      {"measurement": "MIC", "setting": "[15]", "result": "> 1020", "unit": "µg/mL"},
      {"measurement": "MIC", "setting": "[16]", "result": 32, "unit": "µg/mL"},
      {"measurement": "MIC", "setting": "[17]", "result": 1, "unit": "µg/mL"},
      {"measurement": "MIC", "setting": "[18]", "result": 1, "unit": "µg/mL"},
      {"measurement": "MIC", "setting": "[19]", "result": 32, "unit": "µg/mL"},
      {"measurement": "MIC", "setting": "[20]", "result": 32, "unit": "µg/mL"},
      {"measurement": "MIC", "setting": "[21]", "result": 16, "unit": "µg/mL"},
      {"measurement": "MIC", "setting": "[22]", "result": 64, "unit": "µg/mL"},
      {"measurement": "MIC", "setting": "[23]; MRSA, read-out: minimum inhibitory concentration (MIC) against MRSA", "result": 32, "unit": "µg/mL"},
      {"measurement": "MIC", "setting": "[23]; all S. aureus tested strains, converted from µg/ml, read-out: MIC value for all of the Staphylococcus aureus tested strains", "result": 80, "unit": "µM"},
      {"measurement": "MIC", "setting": "[23]; all S. aureus tested strains, read-out: MIC value for all of the Staphylococcus aureus tested strains", "result": 32, "unit": "µg/mL"},
      {"measurement": "effect on protoplasts", "setting": "[24]", "result": "complete lysis of protoplasts"}
    ]}
  ]
}
